# In patent US20110086395A1, “NOVEL MICROORGANISM AND ITS USE IN LIGNOCELLULOSE DETOXIFICATION” (priority 2009, published 2011):
# Marks after values point to notes of the source that are not given here.
# Assays:
# C. basilensis HMF14 [1] = experiment: Degradation of constituents of lignocellulosic hydrolysate, shake-flask cultures with each compound as single carbon source; assay type: cell-based, Cupriavidus basilensis
# Source text: In addition to the furan derivatives, lignocellulosic hydrolysate also contains many other components that can inhibit fermentative production of biochemicals. While C. basilensis HMF14 is unable to degrade the sugars present in lignocellulosic hydrolysate, it preferably degrades many of the other toxic constituents, as illustrated in shake-flask cultures with each compound as a single carbon source (table 3).
# Cupriavidus sp. HMF14 = experiment: Growth of Cupriavidus sp. HMF14 on carbon sources (strain characterization); assay type: cell-based, Cupriavidus basilensis
# C. basilensis HMF14 [2] = experiment: Detoxification of wheat straw hydrolysate by C. basilensis HMF14; assay type: cell-based, Cupriavidus basilensis; settings: for Concentration in hydrolysate during cultivation: during the first ten hours of cultivation; for Removal from wheat straw hydrolysate: after ten hours of cultivation
# Description: Wheat straw hydrolysate was produced by dilute-acid hydrolysis (obtained from TNO Quality of Life, Zeist, The Netherlands). The hydrolysate was neutralized by adding 37 mM phosphate buffer (pH 7) and adjusting the pH to 7.0 with 10 M NaOH, resulting in a brown precipitate. After addition of minimal medium components, the solution was centrifuged at 10 000×g for 5 min. The supernatant was filter sterilized through a sterile PTFE filter with a pore size of 0.22 μm. The resulting medium (MMhyd) was inoculated with an overnight pre-culture of C. basilensis HMF14 in minimal medium with 3 mM HMF, 3 mM furfural and 12 mM sodium succinate.
# (§1) Bacterial growth was determined by measuring optical density at 600 nm (OD600) using a Biowave Cell Density Meter (WPA Ltd) or a μQuant MQX200 universal microplate spectrophotometer (Bio-tek), using flat-bottom 96-well microplates (Greiner). Furan derivatives were analyzed on an Agilent 1100 system equipped with a diode array detector set at 230 nm. The column used was a Zorbax Eclipse XDB-C8 (length, 150 mm; internal diameter, 4.6 mm; particle size, 5 μm; Agilent) operated at 25° C. As eluent, a gradient of acetonitrile in 20 mM KH2PO4 (pH 2) with 1% acetonitrile was used at a flow of 1.2 ml/min, increasing from 0 to 5% in 3.5 min and from 5 to 40% in 2.5 min, set as smooth gradients.
# Glucose, xylose and arabinose were analyzed by ion chromatography (Dionex ICS3000 system), using a CarboPac PA20 column (length, 150 mm; internal diameter, 3 mm) with 10 mM NaOH at a flow rate of 0.5 ml·min−1 as the eluent.
# HmfFG = experiment: Decarboxylase activity of HmfFG in cell extracts; assay type: biochemical; settings: cell extracts of wildtype C. basilensis HMF14 and P. putida S12 expressing HmfFG
# HmfH = experiment: Oxidation by HmfH in cell extracts; assay type: biochemical; settings: cell extracts of wildtype C. basilensis HMF14 and P. putida S12 expressing HmfH
# Description: C. basilensis HMF14 mutants with a disrupted hmfH gene accumulated HMF acid when cultured in the presence of HMF. Cell extracts of both wildtype C. basilensis HMF14 and P. putida S12 expressing HmfH formed FDCA when incubated with HMF acid, confirming that HmfH catalyzes the oxidation of the HMF-monocarboxylic acid to the dicarboxylic acid form.
# Analogous to the furfural pathway, no specific genes were identified for the oxidations in the upper HMF metabolic pathway leading from HMF-alcohol to HMF and HMF-acid. Also these oxidations were concluded to be performed by non-specific, redundant dehydrogenases which activities were observed both in C. basilensis HMF14 and P. putida S12 (Table 2). However, it was observed that also HmfH could oxidize HMF, furfural, and furfuryl alcohol to the corresponding acids, respectively, furfural. Apparently, this oxidase is essential for the formation of FDCA from HMF-acid but also provides an oxidase-alternative to the non-specific alcohol and aldehyde dehydrogenases that constitute the upper metabolic pathways for HMF and furfural.
# [3] = test system: P. putida S12 pJT′hmfABCDE; experiment: Growth of P. putida S12 pJT′hmfABCDE on furanics as sole carbon source; assay type: cell-based, Pseudomonas putida; settings: growth initially poor
# Source text: (§2) First, the furfural cluster hmfABCDE was introduced into P. putida S12. […] Therefore, strain S12 pJT′hmfABCDE was repeatedly transferred to fresh mineral salts medium with furfural as the sole carbon source.
# C. basilensis HMF14 [4] = experiment: Growth of C. basilensis HMF14 on furan derivatives as sole carbon source; assay type: cell-based, Cupriavidus basilensis; settings: minimal medium, 3.5 mM compound as sole carbon source
# Description: Cultures were performed either in Luria broth (LB) or in a minimal medium (MM). Enrichment cultures were performed in MM with 20 mM HMF as the carbon source (MMH20), supplemented as indicated with 0.1 g/l yeast extract as vitamin source (MMyH20). Solid media contained 1.5% agar. Soil and water samples were collected from the botanical garden of the Delft University of Technology and from a peat lake named ‘het Kootwijkerveen’ near Apeldoorn, The Netherlands. The samples were mixed and approximately 1 g was used to inoculate 50 ml MMH2O or MMyH2O in 500-ml Erlenmeyer flasks that were incubated at 30° C. for two days in a rotary shaker. One-ml samples were transferred twice to fresh medium and incubated until bacterial growth was apparent (OD600>1). The final enrichment cultures were streaked onto solid MMH10 and MMyH10 and incubated at 30° C. until colonies appeared.
# as §1
# In addition to HMF, other furan derivatives are present in lignocellulosic hydrolysates. […] Growth was observed on all tested furan derivatives, with slightly different growth characteristics (table 1). In cultures on furfural, furfural was initially rapidly converted to furfuryl alcohol, while also a small amount of furoic acid was formed (FIG. 1). Without wishing to be bound to any particular theory, conversion of furfural to its alcohol and/or acid form appears to be a common mechanism of furfural detoxification. At the onset of logarithmic growth, furfuryl alcohol production decreased in favour of biomass formation, which likely occurs via furoic acid. Similarly, HMF acid and -alcohol were formed in cultures with HMF as the carbon source. In addition, trace amounts of 2,5-furandicarboxylic acid and furoic acid were found in the HMF cultures (not shown).
# [5] = test system: P. putida S12 strains expressing only HmfABCD or HmfABC; experiment: Growth of P. putida S12 strains expressing only HmfABCD or HmfABC; assay type: cell-based, Pseudomonas putida
# P. putida S12_HMF = experiment: Growth of P. putida S12_HMF on furfural or HMF as sole carbon source; assay type: cell-based, Pseudomonas putida
# Source text: Subsequently, the hmfFGH genes were cloned into P. putida S12_fur. […] Gene hmfH′ was apparently dispensable for growth on HMF, confirming that the encoded gene had no function in HMF metabolism. Nor was the gene essential for HMF transport in P. putida S12. Thus, also all genes required for the utilization of HMF were characterized, and their functionality was reconfirmed by functional expression in a heterologous host.
# C. basilensis HMF14 [6] = experiment: Tolerance of C. basilensis HMF14 towards furfural and HMF, shake-flask cultures; assay type: cell-based, Cupriavidus basilensis; settings: for Growth in the presence of compound: 5 mM; for Growth after 24 h of cultivation: shake-flask cultures with 3-15 mM furfural or HMF
# Description: C. basilensis HMF14 grew in the presence of 5 mM of furfural or HMF (0.48 g/l, and 0.63 g/l respectively). However, since the concentration of these toxic compounds is often higher in lignocellulosic hydrolysates, with values ranging from 0 to 3.5 g/l for furfural, and from 0 to 5.9 g/l for HMF, the tolerance of C. basilensis HMF14 towards furfural and HMF was determined in shake-flask cultures with 3-15 mM furfural or HMF (FIG. 2, table 2). […] Also in the HMF cultures, no stable exponential growth was observed, but the apparent growth rate decreased rather than increased with increasing HMF concentrations.
# Ralstonia eutropha = settings: cited from earlier work
# P. putida strain S12_fur = experiment: Growth of P. putida S12_fur on furfural as sole carbon source; assay type: cell-based, Pseudomonas putida
# Source text: as §2
# [7] = shake-flask cultures, compound as single carbon source
compound,measurement,setting,value
Oc1ccccc1 [Phenol],Substrate utilization by C. basilensis HMF14,C. basilensis HMF14 [1]; [7],Y
same,Growth on carbon source,Cupriavidus sp. HMF14,able to grow
O=C(O)[C@H](O)[C@@H](O)[C@H](O)[C@H](O)CO [gluconate],Growth on carbon source,Cupriavidus sp. HMF14,able to grow
O=C[C@@H](O)[C@H](O)[C@H](O)CO [Arabinose],Concentration in hydrolysate during cultivation,C. basilensis HMF14 [2],stable
same,Substrate utilization by C. basilensis HMF14,C. basilensis HMF14 [1]; [7],N
same,Growth on carbon source,Cupriavidus sp. HMF14,No growth
O=Cc1ccc(O)cc1 [4-hydroxybenzaldehyde],Substrate utilization by C. basilensis HMF14,C. basilensis HMF14 [1]; [7],Y
COc1cc(C=O)cc(OC)c1O [Syringaldehyde],Substrate utilization by C. basilensis HMF14,C. basilensis HMF14 [1]; [7],N
O=C(O)CCC(=O)O [succinate],Growth on carbon source,Cupriavidus sp. HMF14,able to grow
COc1cc(/C=C/C(=O)O)ccc1O [Ferulic acid],Substrate utilization by C. basilensis HMF14,C. basilensis HMF14 [1]; [7],Y
COc1ccccc1O [Guaiacol],Substrate utilization by C. basilensis HMF14,C. basilensis HMF14 [1]; [7],Y
O=C(O)CC(O)(CC(=O)O)C(=O)O [citrate],Growth on carbon source,Cupriavidus sp. HMF14,able to grow
COc1cc(C=O)ccc1O [Vanillin],Substrate utilization by C. basilensis HMF14,C. basilensis HMF14 [1]; [7],Y
"O=C(O)c1ccc(CO)o1 [HMF acid, 5-hydroxymethyl-2-furancarboxylic acid]",Decarboxylation by HmfFG,HmfFG,not decarboxylated
same,Oxidation by HmfH,HmfH,formed FDCA
CC(=O)O [Acetic acid],Removal from wheat straw hydrolysate,C. basilensis HMF14 [2],completely removed
same,Substrate utilization by C. basilensis HMF14,C. basilensis HMF14 [1]; [7],Y
same,Growth on carbon source,Cupriavidus sp. HMF14,able to grow
O=C[C@H](O)[C@@H](O)[C@H](O)CO [Xylose],Concentration in hydrolysate during cultivation,C. basilensis HMF14 [2],stable
same,Substrate utilization by C. basilensis HMF14,C. basilensis HMF14 [1]; [7],N
same,Growth on carbon source,Cupriavidus sp. HMF14,No growth
O=C(O)c1ccco1 [Furoic acid],Utilization as sole carbon source,[3],able to utilize
same,Max. OD600,C. basilensis HMF14 [4],0.99
same,μmax,C. basilensis HMF14 [4],0.29 h⁻¹
same,Growth on compound,[5],failed to grow
Cc1ccccc1 [toluene],Growth on carbon source,Cupriavidus sp. HMF14,able to grow
COc1cc(CO)ccc1O [Vanillyl alcohol],Substrate utilization by C. basilensis HMF14,C. basilensis HMF14 [1]; [7],Y
CC(=O)CCC(=O)O [Levulinic acid],Substrate utilization by C. basilensis HMF14,C. basilensis HMF14 [1]; [7],Y
c1ccccc1 [benzene],Growth on carbon source,Cupriavidus sp. HMF14,able to grow
COc1cc(C(=O)O)cc(OC)c1O [Syringic acid],Substrate utilization by C. basilensis HMF14,C. basilensis HMF14 [1]; [7],N
"O=C(O)c1ccc(C(=O)O)o1 [FDCA, 2,5-furan-dicarboxylic acid]",Decarboxylation by HmfFG,HmfFG,formed 2-furoic acid
O=CO [Formic acid],Removal from wheat straw hydrolysate,C. basilensis HMF14 [2],completely removed
same,Substrate utilization by C. basilensis HMF14,C. basilensis HMF14 [1]; only co-utilized with a different carbon source,Y^b
OCc1ccc(O)cc1 [4-hydroxybenzyl alcohol],Substrate utilization by C. basilensis HMF14,C. basilensis HMF14 [1]; [7],Y
OCc1ccco1 [Furfuryl alcohol],Utilization as sole carbon source,[3],able to utilize
same,Max. OD600,C. basilensis HMF14 [4],1.08
same,μmax,C. basilensis HMF14 [4],0.22 h⁻¹
same,Substrate utilization by C. basilensis HMF14,C. basilensis HMF14 [1]; [7],Y
same,Oxidation by HmfH,HmfH,could oxidize
"O=Cc1ccc(CO)o1 [HMF, 5-(hydroxymethyl)-furfural]",Max. OD600,C. basilensis HMF14 [4],0.95
same,μmax,C. basilensis HMF14 [4],0.25^a h−1
same,Substrate utilization by C. basilensis HMF14,C. basilensis HMF14 [1]; [7],Y
same,Oxidation by HmfH,HmfH,could oxidize
same,Growth rate,P. putida S12_HMF,0.23 h⁻¹
same,Yield,P. putida S12_HMF,40 % (C-mol biomass/C-mol substrate)
same,Growth in the presence of compound,C. basilensis HMF14 [6],grew
same,Growth after 24 h of cultivation,C. basilensis HMF14 [6],growth was observed at all concentrations tested
O=Cc1ccco1 [Furfural],Utilization as sole carbon source,[3],able to utilize
same,Max. OD600,C. basilensis HMF14 [4],1.09
same,μmax,C. basilensis HMF14 [4],0.22 h⁻¹
same,Metabolic activity of R. Eutropha on compound,Ralstonia eutropha,high metabolic activity
same,Substrate utilization by C. basilensis HMF14,C. basilensis HMF14 [1]; [7],Y
same,Biomass yield,P. putida strain S12_fur,51 % (C-mol biomass/C-mol substrate)
same,Growth rate,P. putida strain S12_fur; after 10 serial transfers,0.30 h⁻¹
same,Oxidation by HmfH,HmfH,could oxidize
same,Growth rate,P. putida S12_HMF,0.23 h⁻¹
same,Yield,P. putida S12_HMF,40 % (C-mol biomass/C-mol substrate)
same,Growth in the presence of compound,C. basilensis HMF14 [6],grew
same,Growth after 24 h of cultivation,C. basilensis HMF14 [6],growth was observed at all concentrations tested
COc1cccc(OC)c1O [Syringol],Substrate utilization by C. basilensis HMF14,C. basilensis HMF14 [1]; [7],N
COc1cc(C(=O)O)ccc1O [Vanillic acid],Substrate utilization by C. basilensis HMF14,C. basilensis HMF14 [1]; [7],Y
O=C(O)c1ccc(O)cc1 [4-hydroxybenzoic acid],Substrate utilization by C. basilensis HMF14,C. basilensis HMF14 [1]; [7],Y
O=C(CO)[C@@H](O)[C@H](O)[C@H](O)CO [fructose],Metabolic activity of R. Eutropha on compound,Ralstonia eutropha,high metabolic activity
